Key:
BA/F3 (insSVD) cells = assay: Ba/F3-EGFR-insSVD cell survival assay (Cell Titer-Glo); type: cell-based; conditions: Mus musculus, BaF3, 48 h, Table 3a, cell survival, Cell Titer-Glo, with 10 ng/ml EGF, without IL-3
Summary of the method: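 Ba/F3 cells stably expressing retroviral EGFR-insSVD or insSVD T790M, grown without IL-3 on 10 ng/ml EGF, 4000 cells/well. Compound pinned in, 48 h at 37° C. Viability by CellTiter-Glo luminescence.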

[1] = target: T1, mutEGFR (D770_N771insSVD) (Homo sapiens, UniProt P00533, DUP768-770); assay: Exon20-Mutant-EGFR (D770_N771insSVD) kinase assay (TR-FRET); type: biochemical; conditions: mutEGFR (D770_N771insSVD) kinase assay IC50, Table 2a; D770_N771insSVD; 2 mM ATP
T1 construct: GST-EGFR #3 (SVD between D770 and N771); made in house; host or cells: Sf9 insect cells (baculovirus)
T1 sequence (P00533 with tags, fused parts or gaps DUP768-770): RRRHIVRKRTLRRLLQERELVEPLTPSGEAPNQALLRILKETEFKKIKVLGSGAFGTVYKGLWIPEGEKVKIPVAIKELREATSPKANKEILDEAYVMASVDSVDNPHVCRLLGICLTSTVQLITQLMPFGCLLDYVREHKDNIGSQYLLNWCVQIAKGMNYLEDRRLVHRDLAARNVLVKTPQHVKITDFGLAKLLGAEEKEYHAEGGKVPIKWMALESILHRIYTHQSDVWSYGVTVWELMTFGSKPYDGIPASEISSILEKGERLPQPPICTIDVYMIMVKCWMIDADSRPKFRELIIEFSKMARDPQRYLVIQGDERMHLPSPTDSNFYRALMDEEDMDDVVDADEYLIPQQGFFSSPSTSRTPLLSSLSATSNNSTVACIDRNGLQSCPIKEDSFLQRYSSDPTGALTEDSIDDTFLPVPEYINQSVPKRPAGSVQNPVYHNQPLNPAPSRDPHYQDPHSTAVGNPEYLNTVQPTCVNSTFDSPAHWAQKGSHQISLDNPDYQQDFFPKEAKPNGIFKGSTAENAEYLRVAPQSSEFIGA

[2] = target: T2, mutEGFR (D770_N771insNPG, T790) (Homo sapiens, UniProt P00533, INS770NPG/T790M); assay: mutEGFR (D770_N771insNPG, T790) kinase assay; type: biochemical; conditions: Table 2a, D770_N771insNPG
T2 construct: exact insNPG construct not described; in-house EGFR proteins were N-terminal GST fusions from baculovirus/insect cells (borders R669-A1210 given only for WT, insSVD, insASV)
T2 sequence (P00533 with tags, fused parts or gaps INS770NPG/T790M limits assumed): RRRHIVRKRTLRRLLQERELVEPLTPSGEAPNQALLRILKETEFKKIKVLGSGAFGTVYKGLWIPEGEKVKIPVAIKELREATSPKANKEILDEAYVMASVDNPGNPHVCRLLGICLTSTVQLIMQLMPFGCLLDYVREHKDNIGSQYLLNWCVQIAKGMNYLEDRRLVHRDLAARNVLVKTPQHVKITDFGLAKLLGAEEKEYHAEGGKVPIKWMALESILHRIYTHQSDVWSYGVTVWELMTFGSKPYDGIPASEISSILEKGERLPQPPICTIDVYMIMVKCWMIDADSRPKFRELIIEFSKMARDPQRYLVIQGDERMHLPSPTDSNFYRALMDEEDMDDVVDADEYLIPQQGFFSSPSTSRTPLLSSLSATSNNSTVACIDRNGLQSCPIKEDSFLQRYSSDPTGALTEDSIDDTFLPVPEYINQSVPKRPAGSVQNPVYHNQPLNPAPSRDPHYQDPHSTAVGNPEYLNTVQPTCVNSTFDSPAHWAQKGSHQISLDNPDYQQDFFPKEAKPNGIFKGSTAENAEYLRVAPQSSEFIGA
From the text: The different EGFR proteins used in the biochemical kinase activity inhibition assays were generated inhouse by expression in insect cells using Baculo Virus system and subsequent purification as described in the following paragraphs.
The cDNAs encoding the various protein sequences from human EGFR human (P00533) were optimized for expression in eukaryotic cells and synthesized by the GeneArt Technology at Life Technologies.

Compound	IC50 (BA/F3 (insSVD) cells) [nM]	IC50 [1] [nM]	IC50 [2] [nM]
C=CC(=O)N1CCn2nc(-c3ccc(C(F)(F)F)cc3)c(-c3ccnc4[nH]cc(C)c34)c2C1 [Example 48, 1-[3-(3-methyl-1H-pyrrolo[2,3-b]pyridin-4-yl)-2-[4-(trifluoromethyl)phenyl]-6,7-dihydropyrazolo[1,5-a]pyrazin-5(4H)-yl]prop-2-en-1-one]	90.5	242	1270
C=CC(=O)N1CCn2nc(-c3ccc(Cl)cc3F)c(-c3ccnc4[nH]cc(C)c34)c2C1 [Example 49, 1-[2-(4-chloro-2-fluorophenyl)-3-(3-methyl-1H-pyrrolo[2,3-b]pyridin-4-yl)-6,7-dihydropyrazolo[1,5-a]pyrazin-5(4H)-yl]prop-2-en-1-one]	71.7	112	121
C=CC(=O)N1CCn2nc(-c3ccc(Cl)cc3F)c(-c3ccncc3C)c2C1 [Example 50, 1-[2-(4-chloro-2-fluorophenyl)-3-(3-methylpyridin-4-yl)-6,7-dihydropyrazolo[1,5-a]pyrazin-5(4H)-yl]prop-2-en-1-one]	156	8.5	135
C=CC(=O)N1CCn2nc(-c3ccc(Cl)cc3F)c(-c3c(F)cnc4[nH]ccc34)c2C1 [Example 51, 1-[2-(4-chloro-2-fluorophenyl)-3-(5-fluoro-1H-pyrrolo[2,3-b]pyridin-4-yl)-6,7-dihydropyrazolo[1,5-a]pyrazin-5(4H)-yl]prop-2-en-1-one]	54.7	6.64	25.7
C=CC(=O)N1CCn2nc(-c3ccc(Cl)cc3F)c(-c3ccnc4[nH]cc(F)c34)c2C1 [Example 52, 1-[2-(4-chloro-2-fluorophenyl)-3-(3-fluoro-1H-pyrolo[2,3-b]pyridin-4-yl)-6,7-dihydropyrazolo[1,5-a]pyrazin-5(4H)-yl]prop-2-en-1-one]	35.5	6.05	22.7
C=CC(=O)N1CCn2nc(-c3ccc(Cl)cc3F)c(-c3ccnc(NC)c3)c2C1 [Example 53, 1-[2-(4-chloro-2-fluorophenyl)-3-[2-(methylamino)pyridin-4-yl]-6,7-dihydropyrazolo[1,5-a]pyrazin-5(4H)-yl]prop-2-en-1-one]	44.2	0.997	7.05
C=CC(=O)N1CCn2nc(-c3ccc(C(F)(F)F)cc3)c(-c3ccnc4[nH]c(C)cc34)c2C1 [Example 54, 1-[3-(2-methyl-1H-pyrrolo[2,3-b]pyridin-4-yl)-2-[4-(trifluoromethyl)phenyl]-6,7-dihydropyrazolo[1,5-a]pyrazin-5(4H)-yl]prop-2-en-1-one]	498	89	3470
C=CC(=O)N1CCn2nc(-c3ccc(C(F)(F)F)cc3)c(-c3ccncc3C3CC3)c2C1 [Example 55, 1-[3-(3-cyclopropylpyridin-4-yl)-2-[4-(trifluoromethyl)phenyl]-6,7-dihydropyrazolo[1,5-a]pyrazin-5(4H)-yl]prop-2-en-1-one]	744	350	2540
C=CC(=O)N1CCn2nc(-c3ccc(C(F)(F)F)cc3)c(-c3ccnc4[nH]c(C)c(C)c34)c2C1 [Example 56, 1-[3-(2,3-dimethyl-1H-pyrrolo[2,3-b]pyridin-4-yl)-2-[4-(trifluoromethyl)phenyl]-6,7-dihydropyrazolo[1,5-a]pyrazin-5(4H)-yl]prop-2-en-1-one]	124	281	670
Cc1c[nH]c2nccc(-c3c(-c4ccc(Cl)cc4F)nn4c3CN(C(=O)/C=C/CN(C)C)CC4)c12 [Example 57, (2E)-1-[2-(4-chloro-2-fluorophenyl)-3-(3-methyl-1H-pyrrolo[2,3-b]pyridin-4-yl)-6,7-dihydropyrazolo[1,5-a]pyrazin-5(4H)-yl]-4-(dimethylamino)but-2-en-1-one]	85.7	165	256
Cc1c[nH]c2nccc(-c3c(-c4ccc(C(F)(F)F)cc4)nn4c3CN(C(=O)/C=C/CN(C)C)CC4)c12 [Example 58, (2E)-4-(dimethylamino)-1-[3-(3-methyl-1H-pyrrolo[2,3-b]pyridin-4-yl)-2-[4-(trifluoromethyl)phenyl]-6,7-dihydropyrazolo[1,5-a]pyrazin-5(4H)-yl]but-2-en-1-one]	138	446	1300
COc1ccc(-c2nn3c(c2-c2ccnc4[nH]cc(C)c24)CN(C(=O)/C=C/CN(C)C)CC3)cc1F [Example 59, (2E)-4-(dimethylamino)-1-[2-(3-fluoro-4-methoxyphenyl)-3-(3-methyl-1H-pyrrolo[2,3-b]pyridin-4-yl)-6,7-dihydropyrazolo[1,5-a]pyrazin-5(4H)-yl]but-2-en-1-one]	488	813	956
COc1ccc(-c2nn3c(c2-c2ccnc4[nH]cc(C)c24)CN(C(=O)/C=C/CN(C)C)CC3)cc1 [Example 60, (2E)-4-(dimethylamino)-1-[2-(4-methoxyphenyl)-3-(3-methyl-1H-pyrrolo[2,3-b]pyridin-4-yl)-6,7-dihydropyrazolo[1,5-a]pyrazin-5(4H)-yl]but-2-en-1-one]	647	939	1410
Cc1c[nH]c2nccc(-c3c(-c4cccc(C#N)c4)nn4c3CN(C(=O)/C=C/CN(C)C)CC4)c12 [Example 61, 3-{5-[(2E)-4-(dimethylamino)but-2-enoyl]-3-(3-methyl-1H-pyrrolo[2,3-b]pyridin-4-yl)-4,5,6,7-tetrahydropyrazolo[1,5-a]pyrazin-2-yl}benzonitrile]	922	2380	398
C=C(CN(C)C)C(=O)N1CCn2nc(-c3ccc(F)cc3)c(-c3ccncc3)c2C1 [Example 62, 2-[(dimethylamino)methyl]-1-[2-(4-fluorophenyl)-3-(pyridin-4-yl)-6,7-dihydropyrazolo[1,5-a]pyrazin-5(4H)-yl]prop-2-en-1-one]	390	29.5	87.6
O=C(/C=C/CN1CCOCC1)N1CCn2nc(-c3ccc(F)cc3)c(-c3ccncc3)c2C1 [Example 63, (2E)-1-[2-(4-fluorophenyl)-3-(pyridin-4-yl)-6,7-dihydropyrazolo[1,5-a]pyrazin-5(4H)-yl]-4-(morpholin-4-yl) but-2-en-1-one]	221	2.64	9
C=C(CN1CCOCC1)C(=O)N1CCn2nc(-c3ccc(F)cc3)c(-c3ccncc3)c2C1 [Example 64, 1-[2-(4-fluorophenyl)-3-(pyridin-4-yl)-6,7-dihydropyrazolo[1,5-a]pyrazin-5(4H)-yl]-2-[(morpholin-4-yl)methyl]prop-2-en-1-one]	5050	268	698
COC/C=C/C(=O)N1CCn2nc(-c3ccc(F)cc3)c(-c3ccncc3)c2C1 [Example 66, (2E)-1-[2-(4-fluorophenyl)-3-(pyridin-4-yl)-6,7-dihydropyrazolo[1,5-a]pyrazin-5(4H)-yl]-4-methoxybut-2-en-1-one]	1750	87.2	222
O=C(/C=C/C(F)(F)F)N1CCn2nc(-c3ccc(F)cc3)c(-c3ccncc3)c2C1 [Example 67, (2E)-4,4,4-trifluoro-1-[2-(4-fluorophenyl)-3-(pyridin-4-yl)-6,7-dihydropyrazolo[1,5-a]pyrazin-5(4H)-yl]but-2-en-1-one]	83.4	1.22	3.3
O=C(C#CCN1CCOCC1)N1CCn2nc(-c3ccc(F)cc3)c(-c3ccncc3)c2C1 [Example 68, 1-[2-(4-fluorophenyl)-3-(pyridin-4-yl)-6,7-dihydropyrazolo[1,5-a]pyrazin-5(4H)-yl]-4-(morpholin-4-yl) but-2-yn-1-one]	60.2	5.33	11.9
CCN(CC)C/C=C/C(=O)N1CCn2nc(-c3ccc(F)cc3)c(-c3ccncc3)c2C1 [Example 69, (2E)-4-(diethylamino)-1-[2-(4-fluorophenyl)-3-(pyridin-4-yl)-6,7-dihydropyrazolo[1,5-a]pyrazin-5(4H)-yl]but-2-en-1-one]	194	1.73	4.78
O=C(/C=C/CO)N1CCn2nc(-c3ccc(F)cc3)c(-c3ccncc3)c2C1 [Example 70, (2E)-1-[2-(4-fluorophenyl)-3-(pyridin-4-yl)-6,7-dihydropyrazolo[1,5-a]pyrazin-5(4H)-yl]-4-hydroxybut-2-en-1-one]	862	26.1	90.2
CCN(C)C/C=C/C(=O)N1CCn2nc(-c3ccc(F)cc3)c(-c3ccncc3)c2C1 [Example 71, (2E)-4-[ethyl(methyl)amino]-1-[2-(4-fluorophenyl)-3-(pyridin-4-yl)-6,7-dihydropyrazolo[1,5-a]pyrazin-5(4H)-yl]but-2-en-1-one]	120	0.907	3.09
CN(C)CC#CC(=O)N1CCn2nc(-c3ccc(Cl)cc3F)c(-c3ccncc3)c2C1 [Example 72, 1-[2-(4-chloro-2-fluorophenyl)-3-(pyridin-4-yl)-6,7-dihydropyrazolo[1,5-a]pyrazin-5(4H)-yl]-4-(dimethylamino)but-2-yn-1-one]	17.9	0.211	0.3

From patent publication US20260365653A1, “IRREVERSIBLE MUTEGFR INHIBITORS” (Bayer Aktiengesellschaft, priority 2022, published 2026)
